According to the supplement of paper PMC10307832:

Columns and labels:
Assay in all cases: relative viability (nuclei count vs DMSO), 5 days (fraction); higher = more cells survive
CAL-12T = tested on: CAL-12T
Method in brief: (§1)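 Each reported value is a median over duplicate plates. It expresses relative viability: treated-well nuclei count divided by vehicle-well nuclei count. Lung cancer cell lines in 1536-well plates were dosed by pin tool a day after seeding, alone with one drug or with a fixed anchor-drug dose plus five library-drug doses (not always all listed) in √10 steps, and nuclei were counted after 5 days.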

NCI-H1975 = tested on: NCI-H1975
Method in brief: as §1

NCI-H520 = tested on: NCI-H520
Method in brief: as §1

NCI-H596 = tested on: NCI-H596
Method in brief: as §1

LOU-NH91 = tested on: LOU-NH91
Method in brief: as §1

LCLC-103H = tested on: LCLC-103H
Method in brief: as §1

NCI-H2085 = tested on: NCI-H2085
Method in brief: as §1

NCI-H647 = tested on: NCI-H647
Method in brief: as §1

NCI-H838 = tested on: NCI-H838
Method in brief: as §1

NCI-H1734 = tested on: NCI-H1734
Method in brief: as §1

NCI-H2126 = tested on: NCI-H2126
Method in brief: as §1

BEN = tested on: BEN
Method in brief: as §1

RERF-LC-KJ = tested on: RERF-LC-KJ
Method in brief: as §1

SW 900 = tested on: SW 900
Method in brief: as §1

NCI-H460 = tested on: NCI-H460
Method in brief: as §1

NCI-H1944 = tested on: NCI-H1944
Method in brief: as §1

NCI-H1666 = tested on: NCI-H1666
Method in brief: as §1

NCI-H661 = tested on: NCI-H661
Method in brief: as §1

NCI-H1651 = tested on: NCI-H1651
Method in brief: as §1

A-427 = tested on: A-427
Method in brief: as §1

HARA = tested on: HARA
Method in brief: as §1

Cc1csc(=NC2CCCCC2)n1/N=C/c1ccc(O)c(O)c1O [MIM1] + Nc1nc2[nH]cc(CCc3ccc(C(=O)N[C@@H](CCC(=O)O)C(=O)O)cc3)c2c(=O)[nH]1 [Pemetrexed] (partner 0.2 µM)
relative viability (CAL-12T; first compound 0.2 µM): 1.25 | relative viability (CAL-12T; first compound 0.6325 µM): 1.07 | relative viability (CAL-12T; first compound 2 µM): 1.04 | relative viability (CAL-12T; first compound 6.325 µM): 0.847 | relative viability (CAL-12T; first compound 20 µM): 0.925 | relative viability (NCI-H1975; first compound 0.2 µM): 0.289 | relative viability (NCI-H1975; first compound 0.6325 µM): 0.317 | relative viability (NCI-H1975; first compound 2 µM): 0.28 | relative viability (NCI-H1975; first compound 6.325 µM): 0.223 | relative viability (NCI-H1975; first compound 20 µM): 0.187 | relative viability (NCI-H520; first compound 0.2 µM): 0.693 | relative viability (NCI-H520; first compound 0.6325 µM): 0.722 | relative viability (NCI-H520; first compound 2 µM): 0.752 | relative viability (NCI-H520; first compound 6.325 µM): 0.547 | relative viability (NCI-H520; first compound 20 µM): 0.306 | relative viability (NCI-H596; first compound 0.2 µM): 0.608 | relative viability (NCI-H596; first compound 0.6325 µM): 0.537 | relative viability (NCI-H596; first compound 2 µM): 0.536 | relative viability (NCI-H596; first compound 6.325 µM): 0.512 | relative viability (NCI-H596; first compound 20 µM): 0.471 | relative viability (LOU-NH91; first compound 0.2 µM): 0.335 | relative viability (LOU-NH91; first compound 0.6325 µM): 0.466 | relative viability (LOU-NH91; first compound 2 µM): 0.383 | relative viability (LOU-NH91; first compound 6.325 µM): 0.403 | relative viability (LOU-NH91; first compound 20 µM): 0.285 | relative viability (LCLC-103H; first compound 0.2 µM): 0.413 | relative viability (LCLC-103H; first compound 0.6325 µM): 0.499 | relative viability (LCLC-103H; first compound 2 µM): 0.456 | relative viability (LCLC-103H; first compound 6.325 µM): 0.466 | relative viability (LCLC-103H; first compound 20 µM): 0.393 | relative viability (NCI-H2085; first compound 0.2 µM): 0.903 | relative viability (NCI-H2085; first compound 0.6325 µM): 0.873 | relative viability (NCI-H2085; first compound 2 µM): 0.885 | relative viability (NCI-H2085; first compound 6.325 µM): 0.777 | relative viability (NCI-H2085; first compound 20 µM): 0.833 | relative viability (NCI-H647; first compound 0.2 µM): 0.187 | relative viability (NCI-H647; first compound 0.6325 µM): 0.186 | relative viability (NCI-H647; first compound 2 µM): 0.178 | relative viability (NCI-H647; first compound 6.325 µM): 0.162 | relative viability (NCI-H647; first compound 20 µM): 0.117 | relative viability (NCI-H838; first compound 0.2 µM): 0.244 | relative viability (NCI-H838; first compound 0.6325 µM): 0.376 | relative viability (NCI-H838; first compound 2 µM): 0.243 | relative viability (NCI-H838; first compound 6.325 µM): 0.269 | relative viability (NCI-H838; first compound 20 µM): 0.226 | relative viability (NCI-H1734; first compound 0.2 µM): 0.424 | relative viability (NCI-H1734; first compound 0.6325 µM): 0.448 | relative viability (NCI-H1734; first compound 2 µM): 0.478 | relative viability (NCI-H1734; first compound 6.325 µM): 0.412 | relative viability (NCI-H1734; first compound 20 µM): 0.179 | relative viability (NCI-H2126; first compound 0.2 µM): 0.643 | relative viability (NCI-H2126; first compound 0.6325 µM): 0.67 | relative viability (NCI-H2126; first compound 2 µM): 0.675 | relative viability (NCI-H2126; first compound 6.325 µM): 0.563 | relative viability (NCI-H2126; first compound 20 µM): 0.399 | relative viability (BEN; first compound 0.2 µM): 0.792 | relative viability (BEN; first compound 0.6325 µM): 0.751 | relative viability (BEN; first compound 2 µM): 0.705 | relative viability (BEN; first compound 6.325 µM): 0.709 | relative viability (BEN; first compound 20 µM): 0.34 | relative viability (RERF-LC-KJ; first compound 0.2 µM): 0.47 | relative viability (RERF-LC-KJ; first compound 0.6325 µM): 0.466 | relative viability (RERF-LC-KJ; first compound 2 µM): 0.369 | relative viability (RERF-LC-KJ; first compound 6.325 µM): 0.361 | relative viability (RERF-LC-KJ; first compound 20 µM): 0.165 | relative viability (SW 900; first compound 0.2 µM): 0.504 | relative viability (SW 900; first compound 0.6325 µM): 0.465 | relative viability (SW 900; first compound 2 µM): 0.499 | relative viability (SW 900; first compound 6.325 µM): 0.349 | relative viability (SW 900; first compound 20 µM): 0.178 | relative viability (NCI-H460; first compound 0.2 µM): 0.0717 | relative viability (NCI-H460; first compound 0.6325 µM): 0.0675 | relative viability (NCI-H460; first compound 2 µM): 0.0683 | relative viability (NCI-H460; first compound 6.325 µM): 0.0681 | relative viability (NCI-H460; first compound 20 µM): 0.0657 | relative viability (NCI-H1944; first compound 0.2 µM): 0.586 | relative viability (NCI-H1944; first compound 0.6325 µM): 0.613 | relative viability (NCI-H1944; first compound 2 µM): 0.478 | relative viability (NCI-H1944; first compound 6.325 µM): 0.381 | relative viability (NCI-H1944; first compound 20 µM): 0.233 | relative viability (NCI-H1666; first compound 0.2 µM): 0.853 | relative viability (NCI-H1666; first compound 0.6325 µM): 0.848 | relative viability (NCI-H1666; first compound 2 µM): 0.826 | relative viability (NCI-H1666; first compound 6.325 µM): 0.666 | relative viability (NCI-H1666; first compound 20 µM): 0.627 | relative viability (NCI-H661; first compound 0.2 µM): 0.676 | relative viability (NCI-H661; first compound 0.6325 µM): 0.908 | relative viability (NCI-H661; first compound 2 µM): 0.975 | relative viability (NCI-H661; first compound 6.325 µM): 0.651 | relative viability (NCI-H661; first compound 20 µM): 0.562 | relative viability (NCI-H1651; first compound 0.2 µM): 0.57 | relative viability (NCI-H1651; first compound 0.6325 µM): 0.443 | relative viability (NCI-H1651; first compound 2 µM): 0.564 | relative viability (NCI-H1651; first compound 6.325 µM): 0.476 | relative viability (NCI-H1651; first compound 20 µM): 0.558 | relative viability (A-427; first compound 0.2 µM): 1.02 | relative viability (A-427; first compound 0.6325 µM): 0.947 | relative viability (A-427; first compound 2 µM): 0.989 | relative viability (A-427; first compound 6.325 µM): 0.901 | relative viability (A-427; first compound 20 µM): 0.343 | relative viability (HARA; first compound 0.2 µM): 0.22 | relative viability (HARA; first compound 0.6325 µM): 0.261 | relative viability (HARA; first compound 2 µM): 0.237 | relative viability (HARA; first compound 6.325 µM): 0.234 | relative viability (HARA; first compound 20 µM): 0.149
